pEC50, pIC50, pKi: −log10 of the molar value. In brackets after ≈: the same amount, converted by molar mass.
Columns and labels:
[1] = target: T1, Induced myeloid leukemia cell differentiation protein Mcl-1 (Homo sapiens, UniProt Q07820)
Bcl-2-like protein 1 [2] = target: T2, Bcl-2-like protein 1 (Homo sapiens, UniProt Q07817); assay: Binding affinity to Bcl-XL (unknown origin) assessed as inhibition constant by fluorescence polarization assay
[3] = target: T1, Induced myeloid leukemia cell differentiation protein Mcl-1; remark: listed apart in the source
Description: Inhibition of N-terminal GST-tagged human MCL-1 (1 to 23 residues) extracted from Escherichia coli BL21 (DE3) by TR-FRET assay

Bcl-2-like protein 1 [4] = target: T2, Bcl-2-like protein 1
[5] = target: T1, Induced myeloid leukemia cell differentiation protein Mcl-1; remark: listed apart in the source
Description: Binding affinity to MCL-1 (unknown origin) assessed as inhibition constant by TR-FRET assay

[6] = target: T3, Apoptosis regulator Bcl-2 (Homo sapiens, UniProt P10415); assay: Binding affinity to BCL-2 (unknown origin) assessed as inhibition constant incubated for 60 mins by TR-FRET assay
T3 sequence (P10415 whole entry): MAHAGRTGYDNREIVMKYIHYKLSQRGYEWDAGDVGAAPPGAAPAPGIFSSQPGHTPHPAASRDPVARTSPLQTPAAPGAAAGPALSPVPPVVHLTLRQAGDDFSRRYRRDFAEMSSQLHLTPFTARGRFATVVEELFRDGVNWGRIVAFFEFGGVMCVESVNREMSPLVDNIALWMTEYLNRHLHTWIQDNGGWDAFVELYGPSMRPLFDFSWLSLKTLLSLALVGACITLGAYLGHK

MV4-11 [7] = assay: Antiproliferative activity against human MV4-11 cells
Bcl-2-like protein 1 [8] = target: T2, Bcl-2-like protein 1; assay: Binding affinity to BCL-XL (unknown origin) assessed as inhibition constant incubated for 60 mins by TR-FRET assay
NCI-H929 [9] = assay: Antiproliferative activity against human NCI-H929 cells assessed as reduction in cell viability
OPM-2 = assay: Antiproliferative activity against human OPM-2 cells
[10] = Solubility of compound in water at pH 7 measured after 24 hrs by HPLC analysis
[11] = target: T1, Induced myeloid leukemia cell differentiation protein Mcl-1; remark: listed apart in the source
Description: Binding affinity to MCL-1 (unknown origin) assessed as inhibition constant

[12] = target: T3, Apoptosis regulator Bcl-2
Description: Binding affinity to BCL-2 (unknown origin) as assessed as inhibition constant

in vivo = settings: mouse
[13] = Clearance in mouse at 1 mg/kg, iv; settings: in vivo
NCI-H929 [14] = assay: Growth inhibition of human NCI-H929 cells
[15] = target: Voltage-gated inwardly rectifying potassium channel KCNH2 (Homo sapiens, UniProt Q12809)
Chain of Voltage-gated inwardly rectifying potassium channel KCNH2 (Q12809 whole entry): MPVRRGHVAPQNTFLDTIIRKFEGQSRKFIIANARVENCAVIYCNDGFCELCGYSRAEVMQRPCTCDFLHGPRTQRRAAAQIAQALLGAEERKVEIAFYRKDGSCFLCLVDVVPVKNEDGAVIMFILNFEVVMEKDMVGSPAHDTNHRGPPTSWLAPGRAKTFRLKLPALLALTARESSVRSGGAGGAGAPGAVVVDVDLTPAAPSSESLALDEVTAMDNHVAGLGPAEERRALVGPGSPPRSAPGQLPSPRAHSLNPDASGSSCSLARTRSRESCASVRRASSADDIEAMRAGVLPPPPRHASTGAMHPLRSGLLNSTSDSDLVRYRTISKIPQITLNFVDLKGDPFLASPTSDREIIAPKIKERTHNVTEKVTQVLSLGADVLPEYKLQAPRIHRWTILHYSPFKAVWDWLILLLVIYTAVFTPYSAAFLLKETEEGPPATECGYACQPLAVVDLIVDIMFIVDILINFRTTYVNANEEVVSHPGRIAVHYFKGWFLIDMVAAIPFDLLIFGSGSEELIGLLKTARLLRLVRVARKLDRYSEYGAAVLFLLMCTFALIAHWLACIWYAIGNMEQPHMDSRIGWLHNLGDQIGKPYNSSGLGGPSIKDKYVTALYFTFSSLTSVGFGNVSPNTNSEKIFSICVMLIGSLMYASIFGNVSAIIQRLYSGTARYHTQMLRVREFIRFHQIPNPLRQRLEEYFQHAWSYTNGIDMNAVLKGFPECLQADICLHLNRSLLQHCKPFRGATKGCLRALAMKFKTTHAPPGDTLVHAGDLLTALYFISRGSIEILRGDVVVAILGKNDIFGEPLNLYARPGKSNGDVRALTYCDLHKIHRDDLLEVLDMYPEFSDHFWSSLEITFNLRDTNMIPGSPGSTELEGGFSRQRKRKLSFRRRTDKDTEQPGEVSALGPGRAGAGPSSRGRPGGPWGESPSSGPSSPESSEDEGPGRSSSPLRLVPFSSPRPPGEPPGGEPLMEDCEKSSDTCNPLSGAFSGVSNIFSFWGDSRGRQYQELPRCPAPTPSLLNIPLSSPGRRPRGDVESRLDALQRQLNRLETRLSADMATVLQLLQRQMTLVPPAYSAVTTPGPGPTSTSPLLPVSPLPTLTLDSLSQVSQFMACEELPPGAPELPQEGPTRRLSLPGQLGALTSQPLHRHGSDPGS

Bcl-2-like protein 1 [16] = target: T2, Bcl-2-like protein 1; assay: Binding affinity to BCL-XL (unknown origin) assessed as inhibition constant
[17] = target: T1, Induced myeloid leukemia cell differentiation protein Mcl-1; remark: listed apart in the source
HL-60 [18] = assay: Cytotoxicity against human HL-60 cells assessed as reduction in cell viability incubated for 48 hrs by CCK-8 assay; settings: HL-60, 48 h
[19] = target: T1, Induced myeloid leukemia cell differentiation protein Mcl-1; assay: Binding affinity to N-terminal MCL-1 (unknown origin) using 5-FAM peptide as substrate by fluorescence polarization assay
[20] = target: T1, Induced myeloid leukemia cell differentiation protein Mcl-1; remark: listed apart in the source
Description: Inhibition of MCL-1 (unknown origin)

Bcl-2-like protein 1 [21] = target: T2, Bcl-2-like protein 1; remark: listed apart in the source
Description: Inhibition of Bcl-XL (unknown origin) by FRET assay

[22] = target: T1, Induced myeloid leukemia cell differentiation protein Mcl-1; remark: listed apart in the source
Description: Binding affinity to MCL-1 (unknown origin) assessed as inhibition constant by fluorescence polarization assay

[23] = Antiproliferative activity against human BL-2 cells; settings: BL2
HL-60 [24] = assay: Growth inhibition of human HL-60 cells
MV4-11 [25] = assay: Antiproliferative activity against human MV4-11 cells assessed as reduction in cell viability
[26] = target: T3, Apoptosis regulator Bcl-2; remark: listed apart in the source
Description: Inhibition of Bcl-2 (unknown origin) by fluorescence polarization assay

MOLP-8 = assay: Antiproliferative activity against human MOLP8 cells

T1 sequence (Q07820 whole entry): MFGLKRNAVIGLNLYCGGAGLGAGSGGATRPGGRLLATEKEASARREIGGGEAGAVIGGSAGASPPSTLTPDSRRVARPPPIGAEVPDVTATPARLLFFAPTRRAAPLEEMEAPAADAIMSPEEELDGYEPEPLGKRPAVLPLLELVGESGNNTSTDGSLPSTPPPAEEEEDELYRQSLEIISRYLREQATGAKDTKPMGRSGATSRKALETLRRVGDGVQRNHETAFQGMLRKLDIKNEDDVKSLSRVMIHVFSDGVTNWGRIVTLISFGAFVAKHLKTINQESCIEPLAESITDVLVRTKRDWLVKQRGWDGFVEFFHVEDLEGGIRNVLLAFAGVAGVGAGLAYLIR
T2 sequence (Q07817 whole entry): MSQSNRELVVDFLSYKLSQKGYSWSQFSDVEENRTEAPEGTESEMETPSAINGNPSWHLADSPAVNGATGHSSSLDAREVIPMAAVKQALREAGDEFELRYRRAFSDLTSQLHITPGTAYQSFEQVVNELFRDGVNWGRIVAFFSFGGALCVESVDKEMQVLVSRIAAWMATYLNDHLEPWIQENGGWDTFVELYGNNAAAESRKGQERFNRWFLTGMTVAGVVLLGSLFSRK

Cc1ccc(S(=O)(=O)/N=C2/C=C(Sc3nc[nH]n3)C(=O)c3ccccc32)cc1
pIC50 [1]: 7.85

CC(C)c1ccccc1Cc1cc(C(=O)Nc2ccc(S(=O)(=O)c3ccccc3C(C)(C)C)cc2)c(O)c(O)c1O
pKi (Bcl-2-like protein 1 [2]): 6.54

O=C(c1ccccc1O)c1[nH]c(Cl)c(Cl)c1-n1c(C(=O)c2ccccc2O)cc(Cl)c1Cl
pIC50 [3]: 5.00
pIC50 (Bcl-2-like protein 1 [4]): < 4.00

O=C(O)CSc1ccc(C(=O)c2[nH]c(Cl)c(Cl)c2-n2c(C(=O)c3ccc(SCC(=O)O)cc3O)cc(Cl)c2Cl)c(O)c1
pIC50 (Bcl-2-like protein 1 [4]): < 4.00

O=C(O)Cn1cc(-c2cc(O)c(C(=O)c3[nH]c(Cl)c(Cl)c3-n3c(C(=O)c4cc(Cl)c(-c5cn(CC(=O)O)nn5)cc4O)cc(Cl)c3Cl)cc2Cl)nn1
pIC50 (Bcl-2-like protein 1 [4]): < 4.30

Cc1nn(C)c(C)c1-c1cccc2c(CCCOc3cccc4ccccc34)c(C(=O)O)n(CCN3CCOCC3)c12
pKi [5]: 9.00

Cc1nn(C)c(COc2ccc(N3CCN(S(=O)(=O)N(C)C)CC3)cc2)c1-c1cccc2c(CCCOc3cccc4ccccc34)c(C(=O)O)n(CCN3CCOCC3)c12
pKi [6]: 6.88
pEC50 (MV4-11 [7]): 5.73
pKi (Bcl-2-like protein 1 [8]): < 6.18

CC(=O)N1CCN(c2ccc(OCc3nn(C)c(C)c3-c3cccc4c(CCCOc5cccc6ccccc56)c(C(=O)O)n(Cc5cccnc5)c34)cc2)CC1
pKi [5]: 9.00

Cc1c(-c2cccc3c(CCCOc4cccc5ccccc45)c(C(=O)O)n(C)c23)c(COc2ccc(B(O)O)c(C=O)c2)nn1C
pIC50 [1]: 5.38

Cc1c(-c2c(-c3ccc(F)o3)sc3ncnc(O[C@H](Cc4ccccc4OCc4ccnn4CC(F)(F)F)C(=O)O)c23)ccc(OCCN2CCN(C)CC2)c1Cl
pIC50 (NCI-H929 [9]): 9.00

COc1ccccc1-c1nccc(COc2ccccc2C[C@@H](Oc2ncnc3sc(-c4ccc(F)cc4)c(-c4ccc(OCCN5CCN(C)CC5)c(Cl)c4C)c23)C(=O)O)n1
pIC50 (NCI-H929 [9]): 9.00

CO[C@H]1/C=C/C[C@H](C)[C@@H](C)S(=O)(=O)NC(=O)c2ccc3c(c2)N(C[C@@H]2CCO[C@H]21)C[C@@]1(CCCc2cc(Cl)ccc21)CO3
pIC50 (OPM-2): 6.36
solubility at 24 h [10]: < 0.1 µM

CO[C@H]1/C(F)=C/C[C@H](C)[C@@H](C)S(=O)(=O)NC(=O)c2ccc3c(c2)N(C[C@@H]2CCO[C@H]21)C[C@@]1(CCCc2cc(Cl)ccc21)CO3
pIC50 (OPM-2): 6.72
solubility at 24 h [10]: 8.3 µM (≈ 5.37 µg/mL)

CO[C@@H]1/C(F)=C/C[C@H](C)[C@@H](C)S(=O)(=O)NC(=O)c2ccc3c(c2)N(C[C@@H]2CCO[C@H]21)C[C@@]1(CCCc2cc(Cl)ccc21)CO3
pIC50 (OPM-2): 5.95
solubility at 24 h [10]: 11.2 µM (≈ 7.25 µg/mL)

Cc1c(-c2cccc3c(CCCOc4cccc5ccccc45)c(C(=O)O)n(C)c23)c(COc2ccccc2)nn1C
pIC50 [1]: 5.38

Cc1cc(OCCCn2cc(-c3cccc(C(F)(F)F)c3)c3cc(C(=O)O)ccc32)cc(C)c1Cl
pKi [11]: 6.40
pKi [12]: 6.25

Cc1cc(Cl)cc(C)c1OCCCc1c2n(c3c(-c4c(C)nn(C)c4C)c(Cl)ccc13)CCCN(c1cn(C)c3ccc(C(=O)O)cc13)C2=O
half-life (in vivo): 34.2 min
pKi [5]: > 10.00
clearance [13]: 245 mL/min/kg
GI50 (NCI-H929 [14]): 300 nM

C#Cc1ccc(OCc2nn(C)c(C)c2-c2cccc3c(CCCOc4cccc5ccccc45)c(C(=O)O)n(C)c23)cc1C=O
pIC50 [1]: 5.38

CCOP(=O)(OCC)c1ccc(C(=O)c2[nH]c(Cl)c(Cl)c2-n2c(C(=O)c3ccc(P(=O)(OCC)OCC)cc3O)cc(Cl)c2Cl)c(O)c1
pIC50 (Bcl-2-like protein 1 [4]): < 4.00

COCCOCc1nn(C)c2c1CSCc1cc(n(C)n1)CSc1cc(c3ccc(F)cc3c1)OCCCc1c(C(=O)O)n(CCN3CCOCC3)c3c-2c(Cl)ccc13
pIC50 [15]: < 4.52
solubility at 24 h [10]: 550 µM (≈ 475 µg/mL)
pKi (Bcl-2-like protein 1 [8]): 10.70

Cc1c(-c2cccc3c(CCCOc4cccc5ccccc45)c(C(=O)O)n(C)c23)c(COc2ccc(S(=O)(=O)F)cc2)nn1C
pIC50 [1]: 5.38

Cc1cc(Cl)cc(C)c1OCCCc1c2n(c3c(-c4c(C)nn(C)c4C)c(Cl)ccc13)[C@H](C)CCN(c1cn(C)c3ccc(C(=O)O)cc13)C2=O
pKi [5]: 10.01
GI50 (NCI-H929 [14]): 190 nM

CC[C@@H]1CC/C=C/[C@H](O)[C@@H]2CC[C@H]2CN2C[C@@]3(CCc4cc(Cl)ccc43)COc3ccc(cc32)C(=O)NS1(=O)=O
pIC50 [11]: 10.30

COCCOCc1nn(C)c2c1CSCc1cc(n(C)n1)CSc1cc(c3ccc(F)cc3c1)OCCCc1c(C(=O)O)n(C)c3c-2c(Cl)ccc13
pIC50 [15]: < 4.52
solubility at 24 h [10]: 580 µM (≈ 443 µg/mL)
pKi (Bcl-2-like protein 1 [8]): 10.74

COc1ccccc1-c1nccc(COc2ccc3cc2C[C@H](C(=O)O)Oc2ncnc4sc(-c5ccc(F)cc5)c(c24)-c2ccc(c(Cl)c2C)CN(CCN2CCN(C)CC2)CO3)n1
pKi [11]: 8.26
pKi (Bcl-2-like protein 1 [16]): < 6.18
pKi [12]: < 5.92

O=C(O)CCn1cc(-c2cccc(C(F)(F)F)c2)c2ccc(-c3ccccc3)cc21
pKi [11]: 6.39
pKi [12]: 5.62

COCCOCn1nc(C)c2c1CSCc1cc(n(C)n1)CCc1cc(c3ccc(F)cc3c1)OCCCn1c(C(=O)O)c(C)c3c-2c(Cl)ccc31
pIC50 [15]: < 4.52
solubility at 24 h [10]: 3140 µM (≈ 2340 µg/mL)
pKi (Bcl-2-like protein 1 [8]): 10.82

CC(C)CN1C[C@@H](c2ccc(Cl)cc2Cl)Oc2ccc(C(=O)O)cc21
pIC50 [17]: 4.26

COc1n[nH]cc1C(=O)NS1(=O)=NC(=O)c2ccc3c(c2)N(C[C@@H]2CCO[C@H]2[C@H](OC)/C(F)=C/C[C@H](C)C1)C[C@@]1(CCCc2cc(Cl)ccc21)CO3 (some centres not stated)
pIC50 (OPM-2): 7.36
solubility at 24 h [10]: 520 µM (≈ 393 µg/mL)

Cc1ccc(Oc2ccc(O)c(O)c2)c(-c2ccsc2S(=O)(=O)NCCNC(=O)Nc2cc(C(F)(F)F)cc(C(F)(F)F)c2)c1
pIC50 (HL-60 [18]): 5.43
pKi [19]: 6.31

Cc1cc(S(=O)(=O)NC(=O)c2cc(C)c(-c3cccc4c(CCCOc5cccc6ccccc56)c(C(=O)O)nn34)c(C)c2)ccc1N[C@H](CCN(C)C)CSc1ccccc1
pIC50 [20]: 8.10
pIC50 (Bcl-2-like protein 1 [21]): 8.52

CC1(C)CC[C@@H](OC(=O)/C=C/c2ccccc2)[C@]2(C)C(C=O)C(C=O)=C[C@H](O)[C@@]12C (some centres not stated)
pIC50 [15]: < 5.00
pKi [22]: 6.52
pIC50 [23]: 5.40

Cc1c(Cl)c2c(Cl)c(C)c1-c1c(-c3ccc(F)cc3)sc3ncnc(c13)O[C@@H](C(=O)O)Cc1cc(ccc1OCc1ccnc(-c3ccc(OC[C@H]4COCCO4)cc3)n1)OCC(CN1CCN(C)CC1)O2 (some centres not stated)
pKi [5]: 11.00
pIC50 (NCI-H929 [9]): 7.40

O=S(=O)(Nc1cc(Sc2ccco2)c(O)c2ccccc12)c1cccs1
pKi [11]: < 4.00

CC(=O)N1CCN(c2ccc(OCc3cccc(-c4ccc5c(-c6cccc(C(F)(F)F)c6)cn(CCC(=O)O)c5c4)c3)cc2)CC1
pKi [11]: 6.43
GI50 (HL-60 [24]): 3150 nM

CO[C@@]1(CN2CCN3CCCC[C@@H]3C2)/C=C/C[C@H](C)[C@@H](C)S(=O)(=O)NC(=O)c2ccc3c(c2)N(C[C@@H]2CC[C@H]21)C[C@@]1(CCCc2cc(Cl)ccc21)CO3
pIC50 (OPM-2): 7.30
pIC50 (MV4-11 [25]): 6.82

Cc1cc(OCCCn2ccc3cc(C(=O)O)ccc32)cc(C)c1Cl
pKi [11]: 5.05
pKi [12]: 4.89

Cc1cc2c(C(C)C)c(O)c(O)cc2c(O)c1-c1c(C)cc2c(C(C)C)c(O)c(O)cc2c1O [APOGOSSYPOL]
pIC50 [26]: 5.55

Cc1c2c(nn1C)CSCc1cc(n(C)n1)CSc1cc(c3ccccc3c1)OCCCc1c(C(=O)O)n(C)c3c-2c(Cl)ccc13 [AZD-5991]
pEC50 (MOLP-8): < 4.80

COC1=CC(c2cc3ccccc3[nH]2)=N/C1=C\c1[nH]c(C)cc1C [OBATOCLAX]
pKi [11]: < 6.00
pKi (Bcl-2-like protein 1 [2]): < 6.00
pKi [12]: 6.70

CO[C@H]1/C=C/C[C@H](C)[C@@H](C)S(=O)(=O)NC(=O)c2ccc3c(c2)N(C[C@@H]2CC[C@H]21)C[C@@]1(CCCc2cc(Cl)ccc21)CO3 [TAPOTOCLAX]
pIC50 (MV4-11 [25]): 6.82

— ChEMBL document CHEMBL6103561, “Chemical dissection of selective myeloid leukemia-1 inhibitors: How they were found and evolved” (Eur J Med Chem, 2025)
